For one compound, Kd and observable negative effects results are on record in patent US20100004166A1, “Endothelin and Endothelin Receptor Agonists in the Treatment of Metabolic Diseases” (priority 2007, published 2010).

The structures appear in SMILES notation.

Series [1] deals with T1, ETA (Homo sapiens, UniProt P25101).
T1 sequence (P25101 21-427): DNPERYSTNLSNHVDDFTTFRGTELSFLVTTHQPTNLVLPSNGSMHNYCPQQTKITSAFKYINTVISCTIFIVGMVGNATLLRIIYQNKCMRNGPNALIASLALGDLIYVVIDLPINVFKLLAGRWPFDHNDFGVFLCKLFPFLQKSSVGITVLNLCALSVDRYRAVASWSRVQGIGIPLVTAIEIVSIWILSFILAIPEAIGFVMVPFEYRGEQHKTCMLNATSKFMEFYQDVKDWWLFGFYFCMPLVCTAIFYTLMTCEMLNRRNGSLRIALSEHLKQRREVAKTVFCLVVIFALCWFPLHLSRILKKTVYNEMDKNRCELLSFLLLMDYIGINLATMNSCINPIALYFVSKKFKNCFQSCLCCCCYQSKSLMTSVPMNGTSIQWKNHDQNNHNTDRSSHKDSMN
As to conditions: read-out: affinity for ETA; cited from earlier work.

Series [2] is described as follows: Reduction of food intake in fasted mice after i.p. injection of peptide. It is filed as in vivo, NIH/Swiss mice. As to conditions: fasted mice, i.p. An excerpt: In yet another embodiment, the ET receptor agonist is adenoregulin. See, e.g., Donly et al., Proc. Natl. Acad. Sci. USA 89:10960-963 (1992); Amiche et al., Biochem. Biophys. Res. Comm. 191:983-90 (1993). Known sequences for adenoregulin include Genbank sequences X70278 and X72387. Originally isolated from the skin of the frog Phyllomedusa bicolor, adenoregulin belongs to the family of dermaseptins, a family of antimicrobial peptides. See, e.g., Amiche et al., J. Biol. Chem. 269:17847-52 (1994); Zhou et al., Biotechnol. Lett. 27:725-30 (2005).
Materials & Methods: NIH/Swiss mice were fasted approximately 17 hours prior to initiation of the experiment. Peptides were injected intraperitoneally (i.p.) at time zero using doses as indicated. All mice received an intraperitoneal injection (200 μl) of either vehicle or compounds at doses indicated and were immediately presented with a pre-weighed food pellet. The food pellet was weighed at 30-minute, 1-hr, and 2-hr intervals after presentation to determine the amount of food eaten. Each point reflects n=4 for mice receiving an endothelin or endothelin agonist or n=3 for mice receiving vehicle.
Food intake values reflect, at each time point, effect of test sample on food intake is expressed as % change relative to vehicle using the formula provided below.
% basal=−100*[1−(food intake of treatment group/food intake of vehicle group)].
Significant test sample effects were identified by ANOVA (p<0.05). Where a significant difference exists, test means were compared to the control mean using Dunnett's test. One-way ANOVA with Dunnett's post test was performed using GraphPad Prism® version 3.01 for Windows, GraphPad Software, San Diego, Calif. USA.

Take `CC[C@H](C)[C@H](NC(=O)[C@H](CC(=O)O)NC(=O)[C@H](CC(C)C)NC(=O)[C@H](Cc1c[nH]cn1)NC(=O)[C@@H]1CSSC[C@H](N)C(=O)N[C@@H]([C@@H](C)O)C(=O)N[C@H]2CSSC[C@H](NC(=O)[C@H](CCC(=O)O)NC(=O)[C@H](CCCCN)NC(=O)[C@H](CC(=O)O)NC(=O)[C@H](CCCCN)NC(=O)[C@H](Cc3ccc(O)cc3)NC(=O)[C@H]([C@@H](C)O)NC(=O)[C@H](Cc3ccccc3)NC2=O)C(=O)N[C@@H](C(C)C)C(=O)N[C@@H](Cc2ccc(O)cc2)C(=O)N[C@@H](Cc2ccc(O)cc2)C(=O)N1)C(=O)N[C@H](C(=O)N[C@@H](Cc1c[nH]c2ccccc12)C(=O)O)[C@@H](C)CC` [ET-3, reference compound]: the Kd in series [1] is 6.5 nM. Further, the observable negative effects result in series [2] is listed as “without observable negative effects”.
